Assay results taken from patent publication US11512107B2, “Methods for assembly of tetracyclic compounds by stereoselective C9-C10 bond formation” (Trustees of Dartmouth College, priority 2018, dated 2022).
pEC50: −log10 of the molar value.

How the values were obtained:
[1] = system: U251 and U87 cells; assay: Growth inhibition and viable cell counts of glioblastoma-derived cell lines; assay type: cell-based, human; conditions: U251 and U87, after 24 hours, versus TMZ
Protocol: FIG. 3A-3B are line graphs depicting (A) dose dependent growth inhibition of U251 and U87 cells treated with Compound 100, Compound 101, TMZ, and vehicle control DMSO (n=4) and (B) viable cell counts of U251 and U87 cells treated with Compound 100, Compound 101, TMZ, and vehicle control DMSO determined every 24 hours for 96 hours (n=4)
To determine the biological effect of Compound 100 and Compound 101, human glioblastoma-derived cell lines U251 and U87 were treated with varying concentrations of Compound 100, Compound 101, temazolomide (TMZ; a standard of care chemotherapeutic agent), or vehicle-toxicity control, dimethylsulfoxide (DMSO) used at final volumes that were identical to those used to attain all concentrations tested of Compound 100 and Compound 101.

[2] = Initial in vivo toxicity studies
Text: In comparison to 17β-estradiol, Compound 100 and Compound 101 have a unique profile for selective agonism of ERβ (FIG. 1).

[3] = biological target: ERβ (Homo sapiens, UniProt Q92731); assay: ERβ agonist assay (functional activity at estrogen receptors, FIG. 1); assay type: cell-based; conditions: for selectivity over ERα: ERβ over ERα, relative to 17β-estradiol; for pEC50: read-out: EC50 ERβ agonism
Protocol: FIG. 1 is a set of line graphs showing the results of ERβ and ERα agonist assays for Compounds 100 and 101.
Compounds 100 and 101 were evaluated for their functional activity at estrogen receptors (both ERα and ERβ). 17β-estradiol was used as a control, as it is appreciated to be a potent agonist of both ERα and ERβ.

[4] = system: human neural stem cells as well as human astrocytes; assay: Cell viability of non-tumour neural cells; assay type: cell-based; conditions: at the equivalent concentration
[5] = system: U251 and U87 cells; assay: Apoptosis by Annexin V / 7-AAD FACS analysis; assay type: cell-based, human; conditions: U251 and U87, 24 hours
Protocol: FIG. 3C is a flow cytometric analysis of U251 and U87 co-stained with Annexin V-FITC/7-AAD after treatment with Compound 100, Compound 101, TMZ, and vehicle control DMSO (n=4).
In order to elucidate the mechanism of this cell death, glioblastoma cells treated for 24 hours with Compound 100, Compound 101, TMZ, or DMSO control were analyzed for early and late apoptosis markers (Annexin V and 7-Aminoactinomycin D) by FACS analyses. […] Additionally, over a period of five days, morphological changes in U251 and U87 cells treated with Compound 100 and Compound 101 were tracked using the Incucyte live cell imaging system.

[6] = system: ERβ; assay: Alkaline phosphatase (ALP) activity in DU-145 prostate cancer cells expressing endogenous ERβ; assay type: cell-based, human; conditions: DU-145 cells, 24 hours, 5 μM
Protocol: FIG. 2 is a bar graph showing alkaline phosphatase activity in human DU-145 prostate cancer cells (17β-estradiol, Compound 100, and Compound 101 were evaluated at 5 μM).
The DU-145 prostate cancer cell line only expresses ERβ and can be used as a model to examine the activation of ERβ in the absence of any potential confounding signal driven by ERα. Alkaline phosphatase (ALP) expression is induced in an ER-dependent manner and has been used to characterize the activity of synthetic ER agonists and antagonists.
In order to examine the ability of Compound 100 and Compound 101 to activate ERβ in the context of a cell line expressing endogenous ERβ, DU-145 cells were treated for 24 hours with either 17β-estradiol, Compound 100, or Compound 101 and ALP activity derived from the cells was examined.

ERβ (Homo sapiens, UniProt Q92731), sequence (Q92731 whole entry): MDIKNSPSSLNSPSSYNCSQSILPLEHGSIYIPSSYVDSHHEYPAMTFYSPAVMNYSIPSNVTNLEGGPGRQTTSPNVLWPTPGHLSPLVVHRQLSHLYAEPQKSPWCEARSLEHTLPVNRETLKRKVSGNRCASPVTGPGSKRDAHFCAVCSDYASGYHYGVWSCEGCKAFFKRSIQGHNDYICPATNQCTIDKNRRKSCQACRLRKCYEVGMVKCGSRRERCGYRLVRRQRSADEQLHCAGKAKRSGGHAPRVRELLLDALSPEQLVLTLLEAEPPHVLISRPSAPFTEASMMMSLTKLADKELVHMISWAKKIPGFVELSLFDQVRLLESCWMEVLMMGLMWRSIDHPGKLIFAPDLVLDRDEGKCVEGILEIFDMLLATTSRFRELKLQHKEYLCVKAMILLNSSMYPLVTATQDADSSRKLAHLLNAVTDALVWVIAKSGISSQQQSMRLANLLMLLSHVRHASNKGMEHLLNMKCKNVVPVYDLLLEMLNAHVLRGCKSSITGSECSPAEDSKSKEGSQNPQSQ

For `C[C@]12CC[C@@]3(C)C(=C1C[C@@H](O)C2)CCc1cc(O)ccc13` [Compound 100, (9S,13R,16S)-9,13-dimethyl-7,9,11,12,13,15,16,17-octahydro-6H-cyclopenta[a]phenanthrene-3,16-diol], the “inhibition of glioma cell growth (IC50): fold lower concentration compared to TMZ” value [1] was 50 fold, the in vivo toxicity [2] was “neither compound is toxic” and the “selectivity over ERα” value [3] was greater than 260 fold. The pEC50 [3] was 10.30, the “cell viability of human neural stem cells and human astrocytes” value [4] was “not affected” and the “induction of apoptosis, fold higher than TMZ or DMSO controls” value [5] was 7 fold.
For `C[C@@]12CC[C@]3(C)C(=C1C[C@H](O)C2)CCc1cc(O)ccc13` [Compound 101, (9R,13S,16R)-9,13-dimethyl-7,9,11,12,13,15,16,17-octahydro-6H-cyclopenta[a]phenanthrene-3,16-diol], the “inhibition of glioma cell growth (IC50): fold lower concentration compared to TMZ” value [1] was 50 fold, the in vivo toxicity [2] was “neither compound is toxic” and the “selectivity over ERα” value [3] was roughly 6 fold. The pEC50 [3] was 8.72, the “cell viability of human neural stem cells and human astrocytes” value [4] was “not affected” and the “induction of apoptosis, fold higher than TMZ or DMSO controls” value [5] was 7 fold.
For `C[C@]12CC[C@@H]3c4ccc(O)cc4CC[C@H]3[C@@H]1CC[C@@H]2O` [17β-estradiol], the “induction of ALP activity” value [6] was “effective in inducing ALP activity”.
